Laboratory results: patent US20250228239A1, “MOLECULES HAVING PESTICIDAL UTILITY, AND INTERMEDIATES, COMPOSITIONS, AND PROCESSES, RELATED THERETO” (priority 2024, published 2025)
Like-named read-outs stand apart in the source and are kept apart here.

What was measured:
[1] = test system: Cabbage Looper (Trichoplusia ni, TRIPNI); experiment: Bioassays on Cabbage Looper (CL), 128-well diet tray assay; format: in vivo; details: Trichoplusia ni, Cabbage Looper
Procedure, shortened: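 Percent mortality, averaged across eight replicate wells, after second-instar larvae (1–5 per well) fed for five to seven days on diet dosed at 50 μg/cm^2. Compound was applied in acetone-water 90:10 and dried; trays kept vented at 25° C under 14:10 photoperiod.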

[2] = test system: Beet Armyworm (Spodoptera exigua, LAPHEG); experiment: Bioassays on Beet Armyworm (BAW), 128-well diet tray assay; format: in vivo; details: Spodoptera exigua, Beet Armyworm
Procedure, shortened: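 Diet-overlay assay: 50 μg/cm^2 compound applied in 90:10 acetone-water to artificial diet, allowed to dry, then infested with 1–5 L2 larvae/well; 8 wells/compound; covered, vented; 25° C., 14:10 L:D, 5–7 d; % mortality per well, averaged.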

SMILES: CC(=O)Nc1c(F)ccc(NC(=O)c2cc(NC(=O)[C@H]3[C@H](c4ccc(F)c(Br)c4)C3(Cl)Cl)ccc2Cl)c1F [F1716, N-(3-Acetamido-2,4-difluorophenyl)-5-((1R,3R)-3-(3-bromo-4-fluorophenyl)-2,2-dichlorocyclopropane-1-carboxamido)-2-chlorobenzamide]
- pest or weed control at 50 µg/cm2 ([1]; rating class, read-out: CL): 50 to 100%
- pest or weed control at 50 µg/cm2 ([2]; rating class, read-out: BAW): 50 to 100%

SMILES: CCC(=O)Nc1c(F)ccc(NC(=O)c2cc(NC(=O)[C@H]3[C@H](c4ccc(F)c(Br)c4)C3(Cl)Cl)ccc2Cl)c1F [F1717, 5-((1R,3R)-3-(3-Bromo-4-fluorophenyl)-2,2-dichlorocyclopropane-1-carboxamido)-2-chloro-N-(2,4-difluoro-3-propionamidophenyl)benzamide]
- pest or weed control at 50 µg/cm2 ([1]; rating class, read-out: CL): 50 to 100%
- pest or weed control at 50 µg/cm2 ([2]; rating class, read-out: BAW): 50 to 100%

SMILES: O=C(CC(F)(F)F)Nc1c(F)ccc(NC(=O)c2cc(NC(=O)[C@H]3[C@H](c4ccc(F)c(Br)c4)C3(Cl)Cl)ccc2Cl)c1F [F1718, 5-((1R,3R)-3-(3-Bromo-4-fluorophenyl)-2,2-dichlorocyclopropane-1-carboxamido)-2-chloro-N-(2,4-difluoro-3-(3,3,3-trifluoropropanamido)phenyl)benzamide]
- pest or weed control at 50 µg/cm2 ([1]; rating class, read-out: CL): 50 to 100%
- pest or weed control at 50 µg/cm2 ([2]; rating class, read-out: BAW): 50 to 100%

SMILES: O=C(Nc1ccc(F)c(NC(=O)C2CCCS2)c1F)c1cc(NC(=O)[C@H]2[C@H](c3ccc(F)c(C(F)(F)F)c3)C2(Cl)Cl)ccc1Cl (stereo partly drawn) [F1721, N-(3-(2-Chloro-5-((1R,3R)-2,2-dichloro-3-(4-fluoro-3-(trifluoromethyl)phenyl)cyclopropane-1-carboxamido)benzamido)-2,6-difluorophenyl)tetrahydrothiophene-2-carboxamide]
- pest or weed control at 50 µg/cm2 ([1]; rating class, read-out: CL): 50 to 100%
- pest or weed control at 50 µg/cm2 ([2]; rating class, read-out: BAW): 50 to 100%

SMILES: O=C(Nc1ccc(F)c(NC(=O)C2CCCOC2)c1F)c1cc(NC(=O)[C@H]2[C@H](c3ccc(F)c(C(F)(F)F)c3)C2(Cl)Cl)ccc1Cl (stereo partly drawn) [F1722, N-(3-(2-Chloro-5-((1R,3R)-2,2-dichloro-3-(4-fluoro-3-(trifluoromethyl)phenyl)cyclopropane-1-carboxamido)benzamido)-2,6-difluorophenyl)tetrahydro-2H-pyran-3-carboxamide]
- pest or weed control at 50 µg/cm2 ([1]; rating class, read-out: CL): 50 to 100%
- pest or weed control at 50 µg/cm2 ([2]; rating class, read-out: BAW): 50 to 100%

SMILES: O=C(CCl)Nc1c(F)ccc(NC(=O)c2cc(NC(=O)[C@H]3[C@H](c4ccc(F)c(C(F)(F)F)c4)C3(Cl)Cl)ccc2Cl)c1F [F1726, 2-Chloro-N-(3-(2-chloroacetamido)-2,4-difluorophenyl)-5-((1R,3R)-2,2-dichloro-3-(4-fluoro-3-(trifluoromethyl)phenyl)cyclopropane-1-carboxamido)benzamide]
- pest or weed control at 50 µg/cm2 ([1]; rating class, read-out: CL): 50 to 100%
- pest or weed control at 50 µg/cm2 ([2]; rating class, read-out: BAW): 50 to 100%

SMILES: CCO[C@@H](C)C(=O)Nc1c(F)ccc(NC(=O)c2cc(NC(=O)[C@H]3[C@H](c4ccc(F)c(C(F)(F)F)c4)C3(Cl)Cl)ccc2Cl)c1F [F1731, 2-Chloro-5-((1R,3R)-2,2-dichloro-3-(4-fluoro-3-(trifluoromethyl)phenyl)cyclopropane-1-carboxamido)-N-(3-((S)-2-ethoxypropanamido)-2,4-difluorophenyl)benzamide]
- pest or weed control at 50 µg/cm2 ([1]; rating class, read-out: CL): 50 to 100%
- pest or weed control at 50 µg/cm2 ([2]; rating class, read-out: BAW): 50 to 100%

SMILES: CCO[C@H](C)C(=O)Nc1c(F)ccc(NC(=O)c2cc(NC(=O)[C@H]3[C@H](c4ccc(F)c(C(F)(F)F)c4)C3(Cl)Cl)ccc2Cl)c1F [F1732, 2-Chloro-5-((1R,3R)-2,2-dichloro-3-(4-fluoro-3-(trifluoromethyl)phenyl)cyclopropane-1-carboxamido)-N-(3-((R)-2-ethoxypropanamido)-2,4-difluorophenyl)benzamide]
- pest or weed control at 50 µg/cm2 ([1]; rating class, read-out: CL): 50 to 100%
- pest or weed control at 50 µg/cm2 ([2]; rating class, read-out: BAW): 50 to 100%

SMILES: CCO[C@@H](C)C(=O)Nc1c(F)ccc(NC(=O)c2cc(NC(=O)[C@H]3[C@H](c4ccc(Cl)c(Cl)c4)C3(Cl)Cl)ccc2Cl)c1F [F1733, 2-Chloro-5-((1R,3R)-2,2-dichloro-3-(3,4-dichlorophenyl)cyclopropane-1-carboxamido)-N-(3-((S)-2-ethoxypropanamido)-2,4-difluorophenyl)benzamide]
- pest or weed control at 50 µg/cm2 ([1]; rating class, read-out: CL): 50 to 100%
- pest or weed control at 50 µg/cm2 ([2]; rating class, read-out: BAW): 50 to 100%

SMILES: CCO[C@H](C)C(=O)Nc1c(F)ccc(NC(=O)c2cc(NC(=O)[C@H]3[C@H](c4ccc(Cl)c(Cl)c4)C3(Cl)Cl)ccc2Cl)c1F [F1734, 2-Chloro-5-((1R,3R)-2,2-dichloro-3-(3,4-dichlorophenyl)cyclopropane-1-carboxamido)-N-(3-((R)-2-ethoxypropanamido)-2,4-difluorophenyl)benzamide]
- pest or weed control at 50 µg/cm2 ([1]; rating class, read-out: CL): 50 to 100%
- pest or weed control at 50 µg/cm2 ([2]; rating class, read-out: BAW): 50 to 100%

SMILES: O=C(Nc1ccc(F)c(NC(=O)C(F)(F)C(F)(F)C(F)(F)F)c1F)c1cc(NC(=O)[C@H]2[C@H](c3ccc(F)c(Cl)c3)C2(Cl)Cl)ccc1Cl [F1741, 2-Chloro-5-((1R,3R)-2,2-dichloro-3-(3-chloro-4-fluorophenyl)cyclopropane-1-carboxamido)-N-(2,4-difluoro-3-(2,2,3,3,4,4,4-heptafluorobutanamido)phenyl)benzamide]
- pest or weed control at 50 µg/cm2 ([1]; rating class, read-out: CL): 50 to 100%
- pest or weed control at 50 µg/cm2 ([2]; rating class, read-out: BAW): 50 to 100%

SMILES: CC1OC1C(=O)Nc1c(F)ccc(NC(=O)c2cc(NC(=O)[C@H]3[C@H](c4ccc(F)c(C(F)(F)F)c4)C3(Cl)Cl)ccc2Cl)c1F (stereo partly drawn) [F1748, N-(3-(2-Chloro-5-((1R,3R)-2,2-dichloro-3-(4-fluoro-3-(trifluoromethyl)phenyl)cyclopropane-1-carboxamido)benzamido)-2,6-difluorophenyl)-3-methyloxirane-2-carboxamide]
- pest or weed control at 50 µg/cm2 ([1]; rating class, read-out: CL): 50 to 100%
- pest or weed control at 50 µg/cm2 ([2]; rating class, read-out: BAW): 50 to 100%

SMILES: O=C(Nc1ccc(F)cc1F)c1cc(NC(=O)[C@@H]2[C@@H](c3cc(F)c(F)c(F)c3)C2(Cl)Cl)ccc1Cl [F1749, 2-Chloro-5-((1S,3S)-2,2-dichloro-3-(3,4,5-trifluorophenyl)cyclopropane-1-carboxamido)-N-(2,4-difluorophenyl)benzamide]
- pest or weed control at 50 µg/cm2 ([1]; rating class, read-out: CL): 50 to 100%
- pest or weed control at 50 µg/cm2 ([2]; rating class, read-out: BAW): 50 to 100%

SMILES: O=C(Nc1ccc(F)cc1F)c1cc(NC(=O)[C@H]2[C@H](c3ccc(F)c(F)c3)C2(Cl)Cl)ccc1Cl [F1750, 2-Chloro-5-((1R,3R)-2,2-dichloro-3-(3,4-difluorophenyl)cyclopropane-1-carboxamido)-N-(2,4-difluorophenyl)benzamide]
- pest or weed control at 50 µg/cm2 ([1]; rating class, read-out: CL): 50 to 100%
- pest or weed control at 50 µg/cm2 ([2]; rating class, read-out: BAW): 50 to 100%

SMILES: O=C(Nc1ccc(F)cc1F)c1cc(NC(=O)[C@@H]2[C@@H](c3ccc(F)c(F)c3)C2(Cl)Cl)ccc1Cl [F1751, 2-Chloro-5-((1S,3S)-2,2-dichloro-3-(3,4-difluorophenyl)cyclopropane-1-carboxamido)-N-(2,4-difluorophenyl)benzamide]
- pest or weed control at 50 µg/cm2 ([1]; rating class, read-out: CL): 50 to 100%
- pest or weed control at 50 µg/cm2 ([2]; rating class, read-out: BAW): 50 to 100%

SMILES: COC(=O)C(=O)Nc1c(F)ccc(NC(=O)c2cc(NC(=O)[C@H]3[C@H](c4ccc(F)c(C(F)(F)F)c4)C3(Cl)Cl)ccc2Cl)c1F [F1753, Methyl 2-((3-(2-chloro-5-((1R,3R)-2,2-dichloro-3-(4-fluoro-3-(trifluoromethyl)phenyl)cyclopropane-1-carboxamido)benzamido)-2,6-difluorophenyl)amino)-2-oxoacetate]
- pest or weed control at 50 µg/cm2 ([1]; rating class, read-out: CL): 50 to 100%
- pest or weed control at 50 µg/cm2 ([2]; rating class, read-out: BAW): 50 to 100%

SMILES: CC(=O)C(=O)Nc1c(F)ccc(NC(=O)c2cc(NC(=O)[C@H]3[C@H](c4ccc(F)c(C(F)(F)F)c4)C3(Cl)Cl)ccc2Cl)c1F [F1754, 2-Chloro-5-((1R,3R)-2,2-dichloro-3-(4-fluoro-3-(trifluoromethyl)phenyl)cyclopropane-1-carboxamido)-N-(2,4-difluoro-3-(2-oxopropanamido)phenyl)benzamide]
- pest or weed control at 50 µg/cm2 ([1]; rating class, read-out: CL): 50 to 100%
- pest or weed control at 50 µg/cm2 ([2]; rating class, read-out: BAW): 50 to 100%

SMILES: CCC(C#N)C(=O)Nc1c(F)ccc(NC(=O)c2cc(NC(=O)[C@H]3[C@H](c4ccc(F)c(C(F)(F)F)c4)C3(Cl)Cl)ccc2Cl)c1F (stereo partly drawn) [F1756, 2-Chloro-N-(3-(2-cyanobutanamido)-2,4-difluorophenyl)-5-((1R,3R)-2,2-dichloro-3-(4-fluoro-3-(trifluoromethyl)phenyl)cyclopropane-1-carboxamido)benzamide]
- pest or weed control at 50 µg/cm2 ([1]; rating class, read-out: CL): 50 to 100%
- pest or weed control at 50 µg/cm2 ([2]; rating class, read-out: BAW): 50 to 100%

SMILES: CCOC(CC)C(=O)Nc1c(F)ccc(NC(=O)c2cc(NC(=O)[C@H]3[C@H](c4ccc(F)c(C(F)(F)F)c4)C3(Cl)Cl)ccc2Cl)c1F (stereo partly drawn) [F1757, 2-Chloro-5-((1R,3R)-2,2-dichloro-3-(4-fluoro-3-(trifluoromethyl)phenyl)cyclopropane-1-carboxamido)-N-(3-(2-ethoxybutanamido)-2,4-difluorophenyl)benzamide]
- pest or weed control at 50 µg/cm2 ([1]; rating class, read-out: CL): 50 to 100%
- pest or weed control at 50 µg/cm2 ([2]; rating class, read-out: BAW): 50 to 100%

SMILES: CCNc1c(F)ccc(NC(=O)c2cc(NC(=O)[C@H]3[C@H](c4ccc(F)c(C(F)(F)F)c4)C3(Cl)Cl)ccc2Cl)c1F [F1762, 2-Chloro-5-((1R,3R)-2,2-dichloro-3-(4-fluoro-3-(trifluoromethyl)phenyl)cyclopropane-1-carboxamido)-N-(3-(ethylamino)-2,4-difluorophenyl)benzamide]
- pest or weed control at 50 µg/cm2 ([1]; rating class, read-out: CL): 50 to 100%
- pest or weed control at 50 µg/cm2 ([2]; rating class, read-out: BAW): 50 to 100%

SMILES: O=C(Nc1c(F)ccc([N+](=O)[O-])c1F)c1cc(NC(=O)[C@H]2[C@H](c3cc(Cl)c(Cl)c(Cl)c3)C2(Cl)Cl)cc(F)c1F [F1765, 5-((1R,3R)-2,2-Dichloro-3-(3,4,5-trichlorophenyl)cyclopropane-1-carboxamido)-N-(2,6-difluoro-3-nitrophenyl)-2,3-difluorobenzamide]
- pest or weed control at 50 µg/cm2 ([1]; rating class, read-out: CL): 50 to 100%
- pest or weed control at 50 µg/cm2 ([2]; rating class, read-out: BAW): 50 to 100%

SMILES: Nc1ccc(F)c(NC(=O)c2cc(NC(=O)[C@H]3[C@H](c4cc(Cl)c(Cl)c(Cl)c4)C3(Cl)Cl)cc(F)c2F)c1F [F1770, N-(3-Amino-2,6-difluorophenyl)-5-((1R,3R)-2,2-dichloro-3-(3,4,5-trichlorophenyl)cyclopropane-1-carboxamido)-2,3-difluorobenzamide]
- pest or weed control at 50 µg/cm2 ([1]; Table ABC / ABC-DP rating, read-out: CL rating): 50 to 100%
- pest or weed control at 50 µg/cm2 ([2]; Table ABC / ABC-DP rating, read-out: BAW rating): 50 to 100%
